Assays:
MR [1] = biological target: T1, MR (Mus musculus, UniProt Q8VII8); assay: NGAL expression in peritoneal macrophages stimulated with aldo; assay type: cell-based; details: aldo 10 nM; peritoneal macrophages from WT mice
T1 construct: Macrophages are purified from abdominal cavity from mice; endogenous in cells; host or cells: thioglycollate-elicited peritoneal macrophages from WT mice
T1 sequence (Q8VII8 1-978): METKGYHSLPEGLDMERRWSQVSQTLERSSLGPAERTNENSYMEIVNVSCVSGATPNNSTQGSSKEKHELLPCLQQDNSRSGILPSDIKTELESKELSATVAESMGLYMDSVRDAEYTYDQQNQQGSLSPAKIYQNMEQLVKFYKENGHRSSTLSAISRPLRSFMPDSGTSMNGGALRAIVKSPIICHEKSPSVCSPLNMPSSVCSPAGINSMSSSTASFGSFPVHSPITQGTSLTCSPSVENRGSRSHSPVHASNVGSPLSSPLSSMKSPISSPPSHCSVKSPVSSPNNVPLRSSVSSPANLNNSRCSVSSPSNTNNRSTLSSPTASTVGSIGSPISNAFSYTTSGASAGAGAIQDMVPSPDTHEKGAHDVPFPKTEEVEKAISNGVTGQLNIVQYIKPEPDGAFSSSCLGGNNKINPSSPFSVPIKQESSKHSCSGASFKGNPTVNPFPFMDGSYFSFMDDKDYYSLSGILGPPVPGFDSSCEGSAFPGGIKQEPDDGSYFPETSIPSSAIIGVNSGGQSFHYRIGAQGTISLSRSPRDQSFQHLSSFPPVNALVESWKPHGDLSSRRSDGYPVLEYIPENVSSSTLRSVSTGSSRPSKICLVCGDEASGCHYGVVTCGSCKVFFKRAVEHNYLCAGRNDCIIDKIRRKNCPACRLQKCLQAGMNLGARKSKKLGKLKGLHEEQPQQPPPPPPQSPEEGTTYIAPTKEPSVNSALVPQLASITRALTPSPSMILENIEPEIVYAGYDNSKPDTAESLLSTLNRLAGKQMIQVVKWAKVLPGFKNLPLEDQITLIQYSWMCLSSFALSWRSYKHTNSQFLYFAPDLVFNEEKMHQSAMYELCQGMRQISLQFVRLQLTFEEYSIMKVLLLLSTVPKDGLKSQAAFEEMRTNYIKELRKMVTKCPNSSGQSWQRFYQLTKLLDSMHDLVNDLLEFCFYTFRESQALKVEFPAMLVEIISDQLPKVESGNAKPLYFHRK
Protocol: (§1) FIG. 3. NGAL is an aldo/MR target in DCs (A) and macrophages (B). A:DCs were obtained from male SD rat bone marrow stem cells and differentiated during 6 days with GM-CSF. DCs were incubated with aldo (10 nM), spironolactone (5 μM), aldo plus spironolactone, or vehicle for 24 hr. *p<0.05 by ANOVA analysis (n=4); B: peritoneal macrophages from WT mice were stimulated or not with aldo (10 nM+/−RU28318 (MR antagonist). NGAL behaves similarly as MCP1 (monocy chemoattractant protein).
(§2) Macrophages are purified from abdominal cavity from mice, after 4 days of inflammation induced by thioglycollate injection. Dendritic cells are obtained after 7 days of incubation of bone marrow precursors cells (from mice bone marrow) with GM-CSF (granulocyte macrophage colony-stimulating factor).

MR [2] = biological target: T2, MR (Rattus norvegicus, UniProt P22199); assay: NGAL expression in dendritic cells incubated with aldo +/- spironolactone; assay type: cell-based; details: 24 hr
T2 construct: endogenous in cells; host or cells: dendritic cells differentiated with GM-CSF from bone marrow stem cells of male SD rats
T2 sequence (P22199 1-981): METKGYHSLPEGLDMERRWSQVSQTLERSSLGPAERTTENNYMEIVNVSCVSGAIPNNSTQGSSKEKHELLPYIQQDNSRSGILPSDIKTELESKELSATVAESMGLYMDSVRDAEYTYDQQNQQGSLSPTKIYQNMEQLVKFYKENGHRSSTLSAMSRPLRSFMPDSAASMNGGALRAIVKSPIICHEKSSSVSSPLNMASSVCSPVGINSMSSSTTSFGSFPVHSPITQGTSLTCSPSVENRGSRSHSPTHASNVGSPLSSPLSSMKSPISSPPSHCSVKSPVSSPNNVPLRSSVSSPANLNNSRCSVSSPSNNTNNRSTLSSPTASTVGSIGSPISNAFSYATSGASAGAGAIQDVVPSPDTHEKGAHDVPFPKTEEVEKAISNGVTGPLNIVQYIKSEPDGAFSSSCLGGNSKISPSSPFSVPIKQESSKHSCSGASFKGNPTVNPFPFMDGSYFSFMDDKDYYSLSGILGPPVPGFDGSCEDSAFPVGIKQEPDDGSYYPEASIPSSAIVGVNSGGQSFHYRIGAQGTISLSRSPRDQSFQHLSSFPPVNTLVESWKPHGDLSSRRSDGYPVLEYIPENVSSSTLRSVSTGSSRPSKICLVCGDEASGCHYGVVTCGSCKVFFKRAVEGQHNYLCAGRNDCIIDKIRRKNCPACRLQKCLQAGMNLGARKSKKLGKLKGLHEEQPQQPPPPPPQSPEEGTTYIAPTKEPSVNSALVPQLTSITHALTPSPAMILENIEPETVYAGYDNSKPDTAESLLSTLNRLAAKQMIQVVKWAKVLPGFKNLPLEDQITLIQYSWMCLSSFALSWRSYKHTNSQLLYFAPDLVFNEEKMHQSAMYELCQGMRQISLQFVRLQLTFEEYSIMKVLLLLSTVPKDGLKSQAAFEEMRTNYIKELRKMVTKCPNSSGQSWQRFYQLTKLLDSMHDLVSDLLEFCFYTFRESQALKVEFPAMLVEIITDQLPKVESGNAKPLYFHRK
Protocol: as §1, §2

Structure (SMILES) | NGAL expression in macrophages (MR [1]) | NGAL expression in dendritic cells (MR [2]; aldo 10 nM) | aldo-induced NGAL upregulation in dendritic cells (MR [2]; spironolactone 5 μM plus aldo 10 nM)
C[C@]12CCC(=O)C=C1CC[C@@H]1[C@@H]2[C@@H](O)C[C@]2(C=O)[C@@H](C(=O)CO)CC[C@@H]12 [aldo, Aldosterone] | aldo/MR target gene in the macrophages | upregulated | –
CC(=O)S[C@@H]1CC2=CC(=O)CC[C@]2(C)[C@H]2CC[C@@]3(C)[C@@H](CC[C@@]34CCC(=O)O4)[C@H]12 [spironolactone] | – | – | blocked
